According to US20260165321A1, “FUMIGANT COMPOSITION FOR PEST CONTROL” (priority 2020, published 2026):
≈ marks a conversion by molar mass, not a printed value.

What was measured:
Type in all cases: in vivo
[1] = test system: rice weevil (Sitophilus oryzae); test: Fumigant toxicity test (1), 2 h in 1-liter airtight container; conditions: fumigation 2 hours, ~24° C., 30 insects, doses 0-180 mg/dm^3
Source text: (§1) The poisoning ability index used in the following examples is the internationally commonly used median lethal concentration (LC50), which refers to a dosage required to kill 50% of a group of tested insects. The main test method is to include a number of tested insect (adults or larvae) and the examined chemical at a wide range of dosage in a 1-liter airtight transparent containers for a period of time. Afterward, the airtight containers were opened for ventilation, and the dead insects in the containers were counted. The linear regression between the mortality, expressed as probability unit, and the log dosage was analyzed using the software Priprobit v1.63, from which the value of LC50 could be obtained.
(§2) Take several 1-liter airtight transparent containers marked with different doses of 2,5-dimethylfuran, then put 30 insects into each of the transparent containers and add 2,5-dimethylfuran with marked doses (0, 18, 45, 90, 180 mg/dm^3), respectively, into each of the transparent containers. Place the containers at room temperature (˜24° C.) for 2 hours, and then quantitate the dead insects in each of the transparent containers. Wherein, the insects used include German cockroach (Blattella germanica), green peach aphid (Myzus persicae), brown planthopper (Nilaparvata lugens), diamondback moth (Plutella xylostella), rice weevil (Sitophilus oryzae), lesser grain borer (Rhyzopertha dominica), and sweet potato weevil (Cylas formicarius).

[2] = test system: green peach aphid (Myzus persicae); test: as above; conditions: fumigation 2 hours, ~24° C., 30 insects, doses 0-180 mg/dm^3
Source text: as §1, §2

[3] = test system: lesser grain borer (Rhyzopertha dominica); test: as above; conditions: fumigation 2 hours, ~24° C., 30 insects, doses 0-180 mg/dm^3
Source text: as §1, §2

[4] = test system: brown planthopper (Nilaparvata lugens); test: as above; conditions: fumigation 2 hours, ~24° C., 30 insects, doses 0-180 mg/dm^3
Source text: as §1, §2

[5] = test system: diamondback moth (Plutella xylostella); test: as above; conditions: fumigation 2 hours, ~24° C., 30 insects, doses 0-180 mg/dm^3
Source text: as §1, §2

[6] = test system: German cockroach (Blattella germanica); test: as above; conditions: fumigation 2 hours, ~24° C., 30 insects, doses 0-180 mg/dm^3
Source text: as §1, §2

[7] = test system: rice weevil (Sitophilus oryzae); conditions: adult rice weevil, fumigation 2 hours, about 24° C., 1-liter container
Source text: as §1
Put 30 adult insects of rice weevil (Sitophilus oryzae) into each of a group of 1-liter transparent containers, on which the name of tested chemical and the predetermined dosage are marked. Wherein, the chemicals to be tested include 2,5-dimethylfuran, 2,5-dimethylthiophene, 2-methylfuran, 2-methylthiophene, 2-ethylfuran and 2-ethylthiophene. The airtight containers, which contain the insect and chemical, are left at room temperature of about 24° C. for 2 hours. Afterward, the containers are opened for ventilation, and the dead rice weevils (Sitophilus oryzae) in each of the containers are counted. The linear regression between mortality and log dosage is analyzed using the software Priprobit v1.63, from which the lethal concentrations 50% (LC50) and 95% (LC95) are calculated.

Row | SMILES | LC95 [95% CI] [7] [µg/mL] | further results
1 | Cc1ccc(C)o1 [2,5-dimethylfuran] | 111.6 (≈ 1160 µM) | administered dosage required to kill all the tested individuals [1]: 90 mg/L; administered dosage enough to kill all the tested individuals [2]: 18 mg/L; administered dosage enough to kill all the tested individuals [3]: 18 mg/L; administered dosage required to kill all the tested individuals [4]: 90 mg/L; administered dosage required to kill all the tested individuals [5]: 90 mg/L; administered dosage required to kill all the tested individuals [6]: 90 mg/L
2 | Cc1ccc(C)s1 [2,5-dimethylthiophene] | 135.3 (≈ 1210 µM) | 
3 | CCc1ccco1 [2-ethylfuran] | 146.5 (≈ 1520 µM) | 
4 | CCc1cccs1 [2-ethylthiophene] | 20.6 (≈ 184 µM) | 
5 | Cc1ccco1 [2-methylfuran] | 329.7 (≈ 4020 µM) | 
6 | Cc1cccs1 [2-methylthiophene] | 54.6 (≈ 556 µM) | 
